Like-named read-outs stand apart in the source and are kept apart here.
Assays:
[1] = system: Key Grass and Sedge Weeds as well as Grass Crops; test: Post-emergent Test II herbicidal activity (Table 6); assay type: in vivo; conditions: post-emergence, 336 h; for pest or weed control at 70 g/ha: application rate 70 g ai/ha; for pest or weed control at 140 g/ha: application rate 140 g ai/ha
How it was run: (§1)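 Foliar application at 187 L/ha to greenhouse-grown seedlings (first or second true leaf); subirrigation thereafter. Visual 0–100% injury at 14 d relative to untreated plants.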

[2] = system: Key Broadleaf Weed and Crop Species; test: Post-emergent Test II herbicidal activity (Table 5); assay type: in vivo; conditions: post-emergence, 336 h, post-emergent, 14 days after application; for pest or weed control at 70 g/ha: application rate 70 g ai/ha; for pest or weed control at 140 g/ha: application rate 140 g ai/ha
How it was run: as §1

[3] = CYPES: yellow nutsedge (Cyperus esculentus), read-out: Visual Growth Reduction (%) 14 Days After Application, CYPES
[4] = DIGSA: crabgrass (Digitaria sanguinalis), read-out: Visual Growth Reduction (%) 14 Days After Application, DIGSA
[5] = ECHCG: barnyardgrass (Echinochloa crus-galli), read-out: Visual Growth Reduction (%) 14 Days After Application, ECHCG
[6] = ORYSA: rice (Oryza sativa), read-out: Visual Growth Reduction (%) 14 Days After Application, ORYSA
[7] = SETFA: giant foxtail (Setaria faberi), read-out: Visual Growth Reduction (%) 14 Days After Application, SETFA
[8] = SORVU: grain sorghum (Sorghum vulgare), read-out: Visual Growth Reduction (%) 14 Days After Application, SORVU
[9] = TRZSS (wheat, Triticum aestivum), read-out: Visual Growth Reduction (%) 14 Days After Application, TRZSS
[10] = ZEAMX: maize, corn (Zea mays), read-out: Visual Growth Reduction (%) 14 Days After Application, ZEAMX
[11] = ABUTH: velvetleaf (Abutilon theophrasti), read-out: Visual Growth Reduction (%) 14 Days After Application, ABUTH
[12] = AMARE: redroot pigweed (Amaranthus retroflexus), read-out: Visual Growth Reduction (%) 14 Days After Application, AMARE
[13] = BRSNN: oilseed-rape, canola (Brassica napus), read-out: Visual Growth Reduction (%) 14 Days After Application, BRSNN
[14] = CHEAL: lambsquarters (Chenopodium album), read-out: Visual Growth Reduction (%) 14 Days After Application, CHEAL
[15] = EPHHL: wild poinsettia (Euphorbia heterophylla), read-out: Visual Growth Reduction (%) 14 Days After Application, EPHHL
[16] = HELAN: sunflower (Helianthus annuus), read-out: Visual Growth Reduction (%) 14 Days After Application, HELAN
[17] = VIOTR: wild pansy (Viola tricolor), read-out: Visual Growth Reduction (%) 14 Days After Application, VIOTR

Work on `Nc1c(F)c(-c2cc(F)c(OC(F)F)cc2F)nc(C(=O)O)c1Cl` [Compound 195] yielded a pest or weed control at 70 g/ha [1, 3] of 0 to 29%, a pest or weed control at 140 g/ha [1, 3] of 0 to 29% and a pest or weed control at 70 g/ha [1, 4] of 0 to 29%. The pest or weed control at 140 g/ha [1, 4] was 0 to 29%, the pest or weed control at 70 g/ha [1, 5] was 0 to 29% and the pest or weed control at 140 g/ha [1, 5] was 0 to 29%. For the same molecule, the pest or weed control at 70 g/ha [1, 6] was 0 to 29%, the pest or weed control at 140 g/ha [1, 6] was 0 to 29% and the pest or weed control at 70 g/ha [1, 7] was 0 to 29%. For the same molecule, the pest or weed control at 140 g/ha [1, 7] was 0 to 29%, the pest or weed control at 70 g/ha [1, 8] was 0 to 29% and the pest or weed control at 140 g/ha [1, 8] was 0 to 29%. It also gave a pest or weed control at 70 g/ha [1, 9] of 0 to 29%, a pest or weed control at 140 g/ha [1, 9] of 0 to 29% and a pest or weed control at 70 g/ha [1, 10] of 0 to 29%. It also gave a pest or weed control at 140 g/ha [1, 10] of 0 to 29%, a pest or weed control at 70 g/ha [2, 11] of 0 to 29% and a pest or weed control at 140 g/ha [2, 11] of 0 to 29%. For the same molecule, the pest or weed control at 70 g/ha [2, 12] was 0 to 29%, the pest or weed control at 140 g/ha [2, 12] was 45 to 59% and the pest or weed control at 70 g/ha [2, 13] was 45 to 59%. It also gave a pest or weed control at 140 g/ha [2, 13] of 60 to 74%, a pest or weed control at 70 g/ha [2, 14] of 45 to 59% and a pest or weed control at 140 g/ha [2, 14] of 75 to 84%. For the same molecule, the pest or weed control at 70 g/ha [2, 15] was 30 to 44%, the pest or weed control at 140 g/ha [2, 15] was 30 to 44% and the pest or weed control at 70 g/ha [2, 16] was 60 to 74%. It also gave a pest or weed control at 140 g/ha [2, 16] of 85 to 94%, a pest or weed control at 70 g/ha [2, 17] of 0 to 29% and a pest or weed control at 140 g/ha [2, 17] of 0 to 29%. It also gave a melting point of 162 to 165 °C.

`Nc1cc(-c2cc(F)c(OC(F)F)cc2F)nc(C(=O)O)c1Cl` [Compound 187] showed a pest or weed control at 70 g/ha [1, 3] of 0 to 29%, a pest or weed control at 140 g/ha [1, 3] of 30 to 44% and a pest or weed control at 70 g/ha [1, 4] of 0 to 29%. It also gave a pest or weed control at 140 g/ha [1, 4] of 0 to 29%, a pest or weed control at 70 g/ha [1, 5] of 60 to 74% and a pest or weed control at 140 g/ha [1, 5] of 60 to 74%. For the same molecule, the pest or weed control at 70 g/ha [1, 6] was 0 to 29%, the pest or weed control at 140 g/ha [1, 6] was 0 to 29% and the pest or weed control at 70 g/ha [1, 7] was 60 to 74%. For the same molecule, the pest or weed control at 140 g/ha [1, 7] was 75 to 84%, the pest or weed control at 70 g/ha [1, 8] was 0 to 29% and the pest or weed control at 140 g/ha [1, 8] was 0 to 29%. It also gave a pest or weed control at 70 g/ha [1, 9] of 0 to 29%, a pest or weed control at 140 g/ha [1, 9] of 45 to 59% and a pest or weed control at 70 g/ha [1, 10] of 0 to 29%. It also gave a pest or weed control at 140 g/ha [1, 10] of 0 to 29%, a pest or weed control at 70 g/ha [2, 11] of 45 to 59% and a pest or weed control at 140 g/ha [2, 11] of 60 to 74%. The pest or weed control at 70 g/ha [2, 12] was 95 to 100%, the pest or weed control at 140 g/ha [2, 12] was 95 to 100% and the pest or weed control at 70 g/ha [2, 13] was 75 to 84%. It also gave a pest or weed control at 140 g/ha [2, 13] of 75 to 84%, a pest or weed control at 70 g/ha [2, 14] of 75 to 84% and a pest or weed control at 140 g/ha [2, 14] of 95 to 100%. For the same molecule, the pest or weed control at 70 g/ha [2, 15] was 95 to 100%, the pest or weed control at 140 g/ha [2, 15] was 95 to 100% and the pest or weed control at 70 g/ha [2, 16] was 45 to 59%. It also gave a pest or weed control at 140 g/ha [2, 16] of 60 to 74%, a pest or weed control at 70 g/ha [2, 17] of 0 to 29% and a pest or weed control at 140 g/ha [2, 17] of 0 to 29%. For the same molecule, the melting point was 167.4 to 170.2 °C.

Molecule `Nc1cc(-c2cc(F)c(C(F)F)cc2F)nc(C(=O)O)c1Cl` [Compound 174] has a pest or weed control at 70 g/ha [1, 3] of 60 to 74%, a pest or weed control at 140 g/ha [1, 3] of 85 to 94% and a pest or weed control at 70 g/ha [1, 4] of 0 to 29%. For the same molecule, the pest or weed control at 140 g/ha [1, 4] was 45 to 59%, the pest or weed control at 70 g/ha [1, 5] was 60 to 74% and the pest or weed control at 140 g/ha [1, 5] was 85 to 94%. The pest or weed control at 70 g/ha [1, 6] was 0 to 29%, the pest or weed control at 140 g/ha [1, 6] was 0 to 29% and the pest or weed control at 70 g/ha [1, 7] was 0 to 29%. The pest or weed control at 140 g/ha [1, 7] was 45 to 59%, the pest or weed control at 70 g/ha [1, 8] was 0 to 29% and the pest or weed control at 140 g/ha [1, 8] was 0 to 29%. It also gave a pest or weed control at 70 g/ha [1, 9] of 0 to 29%, a pest or weed control at 140 g/ha [1, 9] of 0 to 29% and a pest or weed control at 70 g/ha [1, 10] of 0 to 29%. The pest or weed control at 140 g/ha [1, 10] was 0 to 29%, the pest or weed control at 70 g/ha [2, 11] was 75 to 84% and the pest or weed control at 140 g/ha [2, 11] was 75 to 84%. The pest or weed control at 70 g/ha [2, 12] was 95 to 100%, the pest or weed control at 140 g/ha [2, 12] was 95 to 100% and the pest or weed control at 70 g/ha [2, 13] was 95 to 100%. It also gave a pest or weed control at 140 g/ha [2, 13] of 95 to 100%, a pest or weed control at 70 g/ha [2, 14] of 95 to 100% and a pest or weed control at 140 g/ha [2, 14] of 95 to 100%. It also gave a pest or weed control at 70 g/ha [2, 15] of 95 to 100%, a pest or weed control at 140 g/ha [2, 15] of 95 to 100% and a pest or weed control at 70 g/ha [2, 16] of 95 to 100%. The pest or weed control at 140 g/ha [2, 16] was 95 to 100%, the pest or weed control at 70 g/ha [2, 17] was 45 to 59% and the pest or weed control at 140 g/ha [2, 17] was 60 to 74%. The melting point was 171.8 to 173.9 °C.

From patent US9113629B2, “4-amino-6-(4-substituted-phenyl)-picolinates and 6-amino-2-(4-substituted-phenyl)-pyrimidine-4-carboxylates and their use as herbicides” (DOW AGROSCIENCES LLC, priority 2013, dated 2015)
